In patent publication US11365188B2, “JAK inhibitors” (priority 2018, dated 2022) one finds IC50 data, which are given here for 18 compounds.

A value given as a limit tells only on which side of the number the result lay.

Holding throughout (type): biochemical
The target of one test is JAK2 (Homo sapiens, UniProt O60674). As to the kind of experiment: JAK2 Assay (Caliper EZ Reader, fluoresceinated peptide). The settings on record: ATP 11.4 μM; JAK2 0.25 nM; 15 minutes at room temperature; read-out: JAK2 inhibition. As for the experimental part: JAK2 Assay 384-well plates in the left foot butoxy measured progress. The final assay volume was 25 μL, 250 nL 100× compounds, 10 μL enzyme mix and 15 μL substrate mix (fluoresceinated peptide and ATP) in assay buffer (50 mM HEPES (pH 7.5), 10 mM MgCl2, 0.01% TritonX-100, 0.01% Brij35, 0.5 mM EGTA and 2 mM DTT) prepared as test compound By mixing the JAK2 with substrates and test compounds to start the reaction. The reaction mixture was incubated for 15 minutes at room temperature, then added 30 μL stop buffer for each sample to terminate the reaction with 50 mM EDTA. After termination of the kinase reaction, the proportion of phosphorylated product was determined as a fraction of total peptide substrate using Caliper EZ Reader 1 Inhibition data were calculated by comparison with 100% of the reaction mixture without enzyme inhibition and vehicle-only reaction mixture billion % inhibition compared. The final concentration of reagents in the assays is: ATP, 11.4 μM; JAK2 fluorescent peptide (5-FAM-EEPLYWSFPAKKK-CONH2), 3 μM; JAK2, 0.25 nM; and DMSO, 1%. Dose response curve were generated to determine the concentration required for IC50 of JAK2 activity.
Sequence of JAK2 (O60674 whole entry, species assumed): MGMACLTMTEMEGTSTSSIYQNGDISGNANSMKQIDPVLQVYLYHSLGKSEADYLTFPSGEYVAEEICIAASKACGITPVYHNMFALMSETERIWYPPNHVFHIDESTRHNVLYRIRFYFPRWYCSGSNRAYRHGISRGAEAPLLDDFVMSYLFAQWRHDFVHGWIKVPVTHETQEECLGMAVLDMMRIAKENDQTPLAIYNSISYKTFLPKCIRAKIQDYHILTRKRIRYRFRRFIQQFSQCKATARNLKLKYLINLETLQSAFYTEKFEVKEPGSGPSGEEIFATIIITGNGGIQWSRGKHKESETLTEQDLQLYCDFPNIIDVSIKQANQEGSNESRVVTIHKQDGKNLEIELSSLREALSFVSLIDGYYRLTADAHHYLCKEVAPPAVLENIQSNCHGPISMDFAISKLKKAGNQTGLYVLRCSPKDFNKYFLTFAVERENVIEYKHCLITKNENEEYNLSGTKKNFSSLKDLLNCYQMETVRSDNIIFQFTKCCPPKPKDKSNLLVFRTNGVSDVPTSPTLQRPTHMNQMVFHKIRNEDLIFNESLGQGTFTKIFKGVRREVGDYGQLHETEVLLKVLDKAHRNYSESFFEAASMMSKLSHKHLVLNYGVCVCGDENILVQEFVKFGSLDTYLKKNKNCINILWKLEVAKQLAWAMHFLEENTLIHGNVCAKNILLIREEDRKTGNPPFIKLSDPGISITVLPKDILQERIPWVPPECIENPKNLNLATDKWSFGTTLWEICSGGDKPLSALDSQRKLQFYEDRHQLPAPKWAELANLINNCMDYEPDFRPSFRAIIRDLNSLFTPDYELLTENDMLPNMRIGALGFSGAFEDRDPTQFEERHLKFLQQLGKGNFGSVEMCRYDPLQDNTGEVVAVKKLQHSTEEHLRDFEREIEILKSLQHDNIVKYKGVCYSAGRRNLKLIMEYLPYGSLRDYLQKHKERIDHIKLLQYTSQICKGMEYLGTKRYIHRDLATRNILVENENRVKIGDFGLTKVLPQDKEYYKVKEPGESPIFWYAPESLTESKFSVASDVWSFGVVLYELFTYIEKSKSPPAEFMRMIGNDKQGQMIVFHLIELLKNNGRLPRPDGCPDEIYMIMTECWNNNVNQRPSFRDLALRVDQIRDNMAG

Another test deals with JAK1 (Homo sapiens, UniProt P23458). As to the kind of experiment: JAK Kinase Assay (JAK1, Caliper EZ Reader, fluoresceinated peptide). The settings on record: ATP 76.5 μM; JAK1 10 nM; 120 minutes at room temperature; read-out: JAK1 inhibition.
Sequence of JAK1 (P23458 whole entry, species assumed): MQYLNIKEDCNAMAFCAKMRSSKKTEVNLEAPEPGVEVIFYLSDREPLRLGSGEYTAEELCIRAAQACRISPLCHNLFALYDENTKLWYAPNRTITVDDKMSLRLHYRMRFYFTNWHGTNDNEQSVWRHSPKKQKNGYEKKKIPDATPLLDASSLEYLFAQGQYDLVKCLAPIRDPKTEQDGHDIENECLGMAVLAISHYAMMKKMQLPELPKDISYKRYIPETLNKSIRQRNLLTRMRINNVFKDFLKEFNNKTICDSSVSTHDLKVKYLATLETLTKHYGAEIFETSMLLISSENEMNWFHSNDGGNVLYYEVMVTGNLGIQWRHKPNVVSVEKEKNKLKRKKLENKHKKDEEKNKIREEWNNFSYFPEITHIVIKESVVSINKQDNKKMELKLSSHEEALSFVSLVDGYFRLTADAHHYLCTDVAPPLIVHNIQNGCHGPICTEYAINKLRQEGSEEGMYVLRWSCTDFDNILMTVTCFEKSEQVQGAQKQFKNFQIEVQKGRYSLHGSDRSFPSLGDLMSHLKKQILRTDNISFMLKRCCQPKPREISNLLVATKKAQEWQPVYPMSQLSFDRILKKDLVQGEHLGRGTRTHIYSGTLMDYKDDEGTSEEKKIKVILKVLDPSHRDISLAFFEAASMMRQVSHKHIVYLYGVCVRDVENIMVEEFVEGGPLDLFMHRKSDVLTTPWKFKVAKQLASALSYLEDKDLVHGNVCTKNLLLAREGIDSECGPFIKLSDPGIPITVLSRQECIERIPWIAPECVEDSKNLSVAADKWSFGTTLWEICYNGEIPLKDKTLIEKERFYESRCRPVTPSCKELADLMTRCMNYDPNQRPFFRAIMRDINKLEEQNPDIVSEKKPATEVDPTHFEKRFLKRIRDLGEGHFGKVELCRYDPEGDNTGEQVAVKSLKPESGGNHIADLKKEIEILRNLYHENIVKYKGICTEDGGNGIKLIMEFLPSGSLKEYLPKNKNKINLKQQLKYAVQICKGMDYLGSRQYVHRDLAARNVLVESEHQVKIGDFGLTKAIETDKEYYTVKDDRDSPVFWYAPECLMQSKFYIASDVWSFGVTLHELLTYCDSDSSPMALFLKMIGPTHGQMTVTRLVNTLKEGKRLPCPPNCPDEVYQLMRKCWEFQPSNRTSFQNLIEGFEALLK
Another test concerns the target T1, JAK3 (Homo sapiens, UniProt P52333).
T1 sequence (P52333 1-1124): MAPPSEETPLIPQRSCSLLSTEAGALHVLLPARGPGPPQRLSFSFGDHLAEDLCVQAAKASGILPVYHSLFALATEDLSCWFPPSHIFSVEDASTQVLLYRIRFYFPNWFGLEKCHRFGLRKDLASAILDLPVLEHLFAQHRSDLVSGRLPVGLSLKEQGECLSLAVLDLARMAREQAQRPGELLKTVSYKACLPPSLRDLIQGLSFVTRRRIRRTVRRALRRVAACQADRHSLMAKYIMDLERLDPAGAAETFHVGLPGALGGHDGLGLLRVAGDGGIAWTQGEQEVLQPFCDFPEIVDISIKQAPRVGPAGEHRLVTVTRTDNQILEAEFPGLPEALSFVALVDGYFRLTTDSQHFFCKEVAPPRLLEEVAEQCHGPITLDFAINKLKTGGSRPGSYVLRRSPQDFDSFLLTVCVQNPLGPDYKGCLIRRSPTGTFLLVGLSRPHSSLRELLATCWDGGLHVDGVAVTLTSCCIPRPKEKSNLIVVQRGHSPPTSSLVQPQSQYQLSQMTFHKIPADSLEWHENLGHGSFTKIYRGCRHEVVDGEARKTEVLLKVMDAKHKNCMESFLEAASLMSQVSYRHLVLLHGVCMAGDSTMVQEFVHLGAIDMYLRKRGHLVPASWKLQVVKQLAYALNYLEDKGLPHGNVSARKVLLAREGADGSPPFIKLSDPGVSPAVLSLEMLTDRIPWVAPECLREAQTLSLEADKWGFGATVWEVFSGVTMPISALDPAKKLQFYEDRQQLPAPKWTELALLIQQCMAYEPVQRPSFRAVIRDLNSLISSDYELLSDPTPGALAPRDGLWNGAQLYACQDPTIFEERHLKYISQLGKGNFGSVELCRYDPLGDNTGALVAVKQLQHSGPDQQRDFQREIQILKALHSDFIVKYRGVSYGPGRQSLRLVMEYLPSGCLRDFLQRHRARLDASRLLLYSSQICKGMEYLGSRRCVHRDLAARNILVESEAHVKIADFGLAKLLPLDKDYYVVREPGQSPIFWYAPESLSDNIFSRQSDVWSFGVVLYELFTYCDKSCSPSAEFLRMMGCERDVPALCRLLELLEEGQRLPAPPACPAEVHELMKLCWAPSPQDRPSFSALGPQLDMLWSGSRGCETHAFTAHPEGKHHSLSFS
As to the kind of experiment: JAK3 Assay (Caliper EZ Reader, fluoresceinated peptide). The settings on record: ATP 3.5 μM; JAK3 0.5 nM; 30 minutes at room temperature; read-out: JAK3 inhibition. As for the experimental part: JAK3 Assay 384-well plates in the left foot butoxy measured progress. The final assay volume was 25 μL, 250 nL 100× compounds, 10 μL enzyme mix and 15 μL substrate mix (fluoresceinated peptide and ATP) in assay buffer (50 mM HEPES (pH 7.5), 10 mM MgCl2, 0.01% TritonX-100, 0.01% Brij35, 0.5 mM EGTA and 2 mM DTT) prepared as test compound. By mixing the JAK3 with substrates and test compounds to start the reaction. The reaction mixture was incubated for 30 minutes at room temperature, then added 30 μL stop buffer for each sample to terminate the reaction with 50 mM EDTA. After termination of the kinase reaction, the proportion of phosphorylated product was determined as a fraction of total peptide substrate using Caliper EZ Reader II. Inhibition data were calculated by comparison with 100% of the reaction mixture without enzyme inhibition and vehicle-only reaction mixture billion % inhibition compared. The final concentration of reagents in the assays is: ATP, 3.5 μM; JAK3 fluorescent peptide (5-FAM-EEPLYWSFPAKKK-CONH2), 3 μM; JAK3, 0.5 nM; and DMSO, 1%. Dose response curve were generated to determine the concentration required for IC50 of JAK3 activity.

Consider `CN(c1ncnc2[nH]ccc12)C1CC2(C1)CN(C(=O)c1cc[nH]n1)C2` [Compound 45, (6-(methyl(7H-pyrrolo[2,3-d]pyrimidin-4-yl)amino)-2-azaspiro[3.3]heptan-2-yl)(1H-pyrazol-3-yl)methanone], for which the values for the IC50 on JAK2, at JAK1 and on JAK3 were 1000 to 10000 nM, 1000 to 10000 nM and not below 10000 nM, respectively.
As to `C#Cc1ccc(C(=O)N2CC3(CC(N(C)c4ncnc5[nH]ccc45)C3)C2)cc1Cl` [Compound 46, (3-chloro-4-ethynylphenyl)(6-(methyl(7H-pyrrolo[2,3-d]pyrimidin-4-yl)amino)-2-azaspiro[3.3]heptan-2-yl)methanone], the IC50 is 100 to 1000 nM at JAK2, not above 10 nM on JAK1 and not below 10000 nM on JAK3.
The like results for `C#Cc1ccc(C(=O)N2CC3(CC(N(C)c4ncnc5[nH]ccc45)C3)C2)cc1F` [Compound 47, (4-ethynyl-3-fluorophenyl)(6-(methyl(7H-pyrrolo[2,3-d]pyrimidin-4-yl)amino)-2-azaspiro[3.3]heptan-2-yl)methanone] were, in that order, 100 to 1000 nM, not above 10 nM and 1000 to 10000 nM.
The like results for `C#Cc1ccc(C(=O)N2CC3(CC(N(C)c4ncnc5[nH]ccc45)C3)C2)nc1` [Compound 48, (5-ethynylpyridin-2-yl)(6-(methyl(7H-pyrrolo[2,3-d]pyrimidin-4-yl)amino)-2-azaspiro[3.3]heptan-2-yl)methanon] were, in that order, 1000 to 10000 nM, 10 to 100 nM and 1000 to 10000 nM.
As for `CN(c1ncnc2[nH]ccc12)C1CC2(C1)CN(C(=O)c1ccc3c(c1)ncn3C)C2` [Compound 49, (6-(methyl(7H-pyrrolo[2,3-d]pyrimidin-4-yl)amino)-2-azaspiro[3.3]heptan-2-yl)(1-methyl-1H-benzo[d]imidazol-5-yl)methanone], the IC50 at JAK2 is 1000 to 10000 nM; on JAK1, 1000 to 10000 nM; on JAK3 it was not below 10000 nM.
Take `CN(c1ncnc2[nH]ccc12)C1CC2(C1)CN(C(=O)c1ccn(C)n1)C2` [Compound 50, (6-(methyl(7H-pyrrolo[2,3-d]pyrimidin-4-yl)amino)-2-azaspiro[3.3]heptan-2-yl)(1-methyl-1H-pyrazol-3-yl)methanone]: the IC50 on JAK2 is not below 10000 nM; on JAK1 it was 100 to 1000 nM; on JAK3 it was not below 10000 nM.
In the case of `CN(c1ncnc2[nH]ccc12)C1CC2(C1)CN(C(=O)c1ccc(-c3ccn(C)n3)cc1)C2` [Compound 68], the IC50 at JAK2 fell in the range of 1000 to 10000 nM; on JAK1 it was 100 to 1000 nM; on JAK3 it was 1000 to 10000 nM.
As to `CN(c1ncnc2[nH]ccc12)C1CC2(C1)CN(C(=O)c1cnn(C3CC3)c1)C2` [Compound 69, (1-Cyclopropyl-1H-pyrazol-4-yl)-{6-[methyl-(7H-pyrrolo[2,3-d]pyrimidin-4-yl)-amino]-2-aza-spiro[3.3]hept-2-yl}-methanone], the IC50 at JAK2 was 1000 to 10000 nM; at JAK1, 100 to 1000 nM; at JAK3, not below 10000 nM.
For `COC(=O)N1CCC2(CCC(N(C)c3ncnc4[nH]ccc34)CC2)CC1` [Compound 73, Methyl 9-(methyl(7H-pyrrolo[2,3-d]pyrimidin-4-yl)amino)-3-azaspiro[5.5]undecane-3-carboxylate] the same measures were 100 to 1000 nM, not above 10 nM and 100 to 1000 nM.
The like results for `CC(=O)N1CCC2(CCC(N(C)c3ncnc4[nH]ccc34)CC2)CC1` [Compound 75, 1-{9-[Methyl-(7H-pyrrolo[2,3-d]pyrimidin-4-yl)-amino]-3-aza-spiro[5.5]undec-3-yl}-ethanone] were, in that order, 10 to 100 nM, 10 to 100 nM and 100 to 1000 nM.
For `CCS(=O)(=O)N1CCC2(CCC(N(C)c3ncnc4[nH]ccc34)CC2)CC1` [Compound 76, (3-Ethanesulfonyl-3-aza-spiro[5.5]undec-9-yl)-methyl-(7H-pyrrolo[2,3-d]pyrimidin-4-yl)-amine] the same measures were 100 to 1000 nM, 100 to 1000 nM and 1000 to 10000 nM.
For the compound `CN(c1ncnc2[nH]ccc12)C1CCC2(CC1)CCN(C(=O)CO)CC2` [Compound 77, 2-Hydroxy-1-{9-[methyl-(7H-pyrrolo[2,3-d]pyrimidin-4-yl)-amino]-3-aza-spiro[5.5]undec-3-yl}-ethanone], the IC50 on JAK2 was in the range of 10 to 100 nM; on JAK1 it was 10 to 100 nM; on JAK3 it was 100 to 1000 nM.
Turning to `CCC(=O)N1CCC2(CCC(N(C)c3ncnc4[nH]ccc34)CC2)CC1` [Compound 78, 1-{9-[Methyl-(7H-pyrrolo[2,3-d]pyrimidin-4-yl)-amino]-3-aza-spiro[5.5]undec-3-yl}-propan-1-one], the IC50 on JAK2 fell in the range of 100 to 1000 nM; on JAK1 it was 100 to 1000 nM; on JAK3 it was 1000 to 10000 nM.
With `CN(c1ncnc2[nH]ccc12)C1CCC2(CC1)CCN(CC(F)(F)F)CC2` [Compound 79, Methyl-(7H-pyrrolo[2,3-d]pyrimidin-4-yl)-[3-(2,2,2-trifluoro-ethyl)-3-aza-spiro[5.5]undec-9-yl]-amine], the IC50 at JAK2, at JAK1 and on JAK3 was 100 to 1000 nM each time.
In the case of `CN(c1ncnc2[nH]ccc12)C1CCC2(CC1)CCN(C(=O)c1cccnc1)CC2` [Compound 80, {9-[Methyl-(7H-pyrrolo[2,3-d]pyrimidin-4-yl)-amino]-3-aza-spiro[5.5]undec-3-yl}-pyridin-3-yl-methanone], the IC50 at JAK2, at JAK1 and on JAK3 was 100 to 1000 nM throughout.
Turning to `CN(c1ncnc2[nH]ccc12)C1CCC2(CC1)CCN(C(=O)CCC#N)CC2` [Compound 81, 4-{9-[Methyl-(7H-pyrrolo[2,3-d]pyrimidin-4-yl)-amino]-3-aza-spiro[5.5]undec-3-yl}-4-oxo-butyronitrile], the IC50 at JAK2, at JAK1 and on JAK3 was 100 to 1000 nM throughout.
For the compound `CN(c1ncnc2[nH]ccc12)C1CCC2(CC1)CCN(C(=O)C1CCC(=O)CC1)CC2` [Compound 82, 4-{9-[Methyl-(7H-pyrrolo[2,3-d]pyrimidin-4-yl)-amino]-3-aza-spiro[5.5]undecane-3-carbonyl}-cyclohexanone], the IC50 on JAK2 lay in the range of 1000 to 10000 nM; at JAK1, 100 to 1000 nM; at JAK3, 1000 to 10000 nM.
As for `CN(c1ncnc2[nH]ccc12)C1CCC2(CC1)CCN(C(=O)c1cccc(C(F)(F)F)c1)CC2` [Compound 83, {9-[Methyl-(7H-pyrrolo[2,3-d]pyrimidin-4-yl)-amino]-3-aza-spiro[5.5]undec-3-yl}-(3-trifluoromethyl-phenyl)-methanone], the IC50 at JAK2 fell in the range of 100 to 1000 nM; on JAK1, 100 to 1000 nM; at JAK3, 1000 to 10000 nM.
